Experimental data as given in the supplement of paper PMC10307832.

Legend:
Test in all cases: relative viability (nuclei count vs DMSO), 5 days (fraction); higher = more cells survive
[1] = compound: Cn1cc(-c2cnn3c(N)c(Br)c([C@@H]4CCCNC4)nc23)cn1 + O=C(CCCCCCC(=O)Nc1ccccc1)NO [Vorinostat] (partner 1 µM)
Summary of the method: (§1)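 Relative viability was taken as the ratio of nuclei in treated wells to nuclei in vehicle wells. Lung cancer cell lines in 1536-well plates received compounds by pin tool one day after seeding, either one drug alone or a fixed anchor-drug dose plus five library-drug doses (not always all listed) in √10 steps. Nuclei were counted on 4× images after 5 days of treatment, and values are medians of duplicate plates.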

[2] = compound: Cn1cc(-c2cnn3c(N)c(Br)c([C@@H]4CCCNC4)nc23)cn1 + C[C@@H](Oc1cc(-c2cnn(C3CCNCC3)c2)cnc1N)c1c(Cl)ccc(F)c1Cl [Crizotinib] (partner 1 µM)
Summary of the method: as §1

[3] = compound: Cn1cc(-c2cnn3c(N)c(Br)c([C@@H]4CCCNC4)nc23)cn1 + NC(=O)Nc1cc(-c2cccc(F)c2)sc1C(=O)N[C@H]1CCCNC1 [AZD7762] (partner 0.2 µM)
Summary of the method: as §1

[4] = compound: Cn1cc(-c2cnn3c(N)c(Br)c([C@@H]4CCCNC4)nc23)cn1 + CC(=O)c1c(C)c2cnc(Nc3ccc(N4CCNCC4)cn3)nc2n(C2CCCC2)c1=O [Palbociclib] (partner 0.5 µM)
Summary of the method: as §1

Cell Line	relative viability ([1]; first compound 0.05 µM)	relative viability ([1]; first compound 0.1581 µM)	relative viability ([1]; first compound 0.5 µM)	relative viability ([1]; first compound 1.581 µM)	relative viability ([1]; first compound 5 µM)	relative viability ([2]; first compound 0.05 µM)	relative viability ([2]; first compound 0.1581 µM)	relative viability ([2]; first compound 0.5 µM)	relative viability ([2]; first compound 1.581 µM)	relative viability ([2]; first compound 5 µM)	relative viability ([3]; first compound 0.05 µM)	relative viability ([3]; first compound 0.1581 µM)	relative viability ([3]; first compound 0.5 µM)	relative viability ([3]; first compound 1.581 µM)	relative viability ([3]; first compound 5 µM)	relative viability ([4]; first compound 0.05 µM)	relative viability ([4]; first compound 0.1581 µM)	relative viability ([4]; first compound 0.5 µM)	relative viability ([4]; first compound 1.581 µM)	relative viability ([4]; first compound 5 µM)
NCI-H838	0.788	0.779	0.742	0.65	0.527	0.925	0.987	0.783	0.785	0.561	0.991	0.92	1	0.879	0.84	0.238	0.228	0.211	0.178	0.224
NCI-H1355	0.645	0.743	0.664	0.524	0.564	0.984	1.12	1.07	1.01	0.698	0.718	0.846	0.672	0.623	0.458	0.371	0.425	0.397	0.385	0.382
NCI-H1437	0.907	0.927	0.955	0.692	0.508	1.09	1.05	0.967	0.693	0.849	1.11	1.18	1.08	1.01	0.889	0.311	0.321	0.339	0.259	0.231
NCI-H1651	0.543	0.587	0.512	0.531	0.39	0.902	0.985	0.806	0.821	0.569	0.436	0.407	0.387	0.378	0.219	0.556	0.564	0.536	0.502	0.424
NCI-H1666	1.16	1.03	0.886	0.906	0.844	1.03	0.906	1.02	1	0.869	0.78	0.82	0.813	0.845	0.861	0.674	0.654	0.649	0.615	0.618
NCI-H1734	0.788	0.75	0.653	0.586	0.348	0.682	0.804	0.633	0.661	0.393	0.531	0.572	0.48	0.469	0.474	0.387	0.347	0.317	0.323	0.295
NCI-H1755	0.869	0.828	0.653	0.642	0.503	0.988	1.03	0.932	0.845	0.602	0.518	0.511	0.416	0.4	0.307	0.467	0.494	0.459	0.449	0.425
NCI-H1915	0.511	0.535	0.666	0.574	0.432	0.674	0.871	0.906	0.697	0.905	0.666	0.67	0.718	0.69	0.709	0.591	0.562	0.522	0.508	0.543
NCI-H1944	0.566	0.575	0.463	0.452	0.219	0.951	1.21	1.09	0.931	0.717	0.608	0.491	0.466	0.423	0.341	0.31	0.343	0.282	0.261	0.261
NCI-H1975	0.793	0.715	0.686	0.547	0.548	1.01	1.05	0.781	0.764	0.714	0.752	0.718	0.72	0.664	0.571	0.654	0.58	0.476	0.449	0.27
NCI-H1993	0.803	0.873	0.921	0.713	0.636	0.76	0.878		0.933	0.702	0.642	0.84	0.616	0.733	0.664	0.645	0.704	0.584	0.564	0.471
NCI-H2085	0.801	0.761	0.843	0.725	0.61	0.846	1.01	0.733	0.794	0.646	0.964	1.12	1.01	0.765	0.719	0.46	0.521	0.51	0.471	0.385
NCI-H2087	0.865	0.891	0.341	0.424	0.653	1.01	1.27	0.939	0.983	0.954	1.32	1.38	1.41	1.22	1.42	0.222	0.292	0.235	0.241	0.177
NCI-H2126	0.694	0.788	0.762	0.683	0.68	1.1	1.09	1.07	0.932	1.03	1.05	1.03	0.997	0.993	0.986	0.338	0.332	0.363	0.347	0.408
NCI-H2170	0.826	0.882	0.659	0.796	0.989	1.19	1.21	1.19	1.16	1.12	0.923	0.919	0.753	0.822	0.973	0.402	0.407	0.366	0.345	0.397
NCI-H2347	0.525	0.585	0.511	0.482	0.4	0.63	0.588	0.788	0.668	0.637	0.77	0.635	0.76	0.65	0.532	0.41	0.442	0.421	0.39	0.43
NCI-H2405	0.962	1.01	0.951	0.847	0.668	0.884	0.849	0.794	0.765	0.611	0.682	0.75	0.659	0.476	0.501	0.529	0.46	0.533	0.452	0.389
